Literature values, collected in US20220152000A1, “PROLONGED RELEASE FORMULATION COMPRISING TACROLIMUS” (PHARMATHEN S.A., priority 2019, published 2022).
Converted amounts (≈) assume the structure as drawn.

Tests used:
[1] = simultaneous ingestion of food versus fasted
CYP3A4 isoenzyme = molecular target: T1, CYP3A4 isoenzyme (Homo sapiens, UniProt P08684); conditions: gut wall and liver
T1 construct: metabolized by the CYP3A4 isoenzyme in the gut wall and liver; from tissue; host or cells: gut wall and liver
T1 sequence (P08684 whole entry): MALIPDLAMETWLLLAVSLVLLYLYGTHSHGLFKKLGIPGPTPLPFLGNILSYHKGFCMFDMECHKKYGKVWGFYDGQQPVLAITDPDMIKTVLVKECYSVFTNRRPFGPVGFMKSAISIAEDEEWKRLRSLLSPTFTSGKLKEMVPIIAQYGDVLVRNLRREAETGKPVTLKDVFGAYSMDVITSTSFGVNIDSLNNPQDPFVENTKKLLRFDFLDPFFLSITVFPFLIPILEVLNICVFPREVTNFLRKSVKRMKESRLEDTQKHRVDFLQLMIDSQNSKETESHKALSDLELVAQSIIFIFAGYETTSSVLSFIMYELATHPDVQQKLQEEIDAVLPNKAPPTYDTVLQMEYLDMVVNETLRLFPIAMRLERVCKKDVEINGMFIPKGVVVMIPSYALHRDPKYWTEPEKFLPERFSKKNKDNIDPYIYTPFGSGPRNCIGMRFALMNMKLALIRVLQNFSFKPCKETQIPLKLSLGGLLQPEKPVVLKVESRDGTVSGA

In the case of `C=CC[C@@H]1/C=C(\C)C[C@H](C)C[C@H](OC)[C@H]2O[C@@](O)(C(=O)C(=O)N3CCCC[C@H]3C(=O)O[C@H](/C(C)=C/[C@@H]3CC[C@@H](O)[C@H](OC)C3)[C@H](C)[C@@H](O)CC1=O)[C@H](C)C[C@@H]2OC` [Tacrolimus], the “Absorption after oral administration, effect of food” value [1] is listed as “negatively influenced by simultaneous ingestion of food”, the “Metabolism by CYP3A4” value (CYP3A4 isoenzyme) is listed as “extensively metabolized” and the Solubility in ethanol (ethanol) is listed as 25 mg/mL (≈ 31.1 mM). For the same compound, the “Solubility in hexane, petroleum ether” value (hexane, petroleum ether) was “sparingly soluble”, the “Solubility in organic solvents” value (methanol, ethanol, acetone, ethyl acetate, diethyl ether, chloroform, dicloromethane) was “soluble” and the Solubility in water (water) was “insoluble”.
